Source: article PMC4120117 (Bioorganic & medicinal chemistry letters, 2014)

System: three MycP1 variants
Type: biochemical, M. tuberculosis, M. thermoresistible, M. smegmatis

## HAlaValLysAlaAlaB(OH)2 [Compound 1]
  inhibition (in words): poorer inhibition than compound 2
